Converted amounts (≈) assume the structure as drawn. “And” between values parts separate entries of the source, which are not always exact repeats. Equal entries are not always repeated.

The test system of the first experiment is clinical drug-susceptible and drug-resistant M. tuberculosis strains. As to the kind of experiment: microbe, parasite or virus in culture. Format: cell-based. As to conditions: Mycobacterium tuberculosis.
The molecule `COc1ccc(-c2cc(NC(=O)c3ccc(F)cc3Cl)ccc2OC)cc1` [DG70, 2-chloro-N-(4',6-dimethoxy-[1,1'-biphenyl]-3-yl)-4-fluorobenzamide] yielded an MIC of 1.2 to 9.6 µg/mL (≈ 3.11 to 24.9 µM).

The same experiment, now with this note: Mycobacterium tuberculosis, H37RV.
`NNC(=O)c1ccncc1` [INH, isoniazid] returned an MIC90 of 0.05 µg/mL (≈ 0.365 µM).

The same experiment, now with this note: Mycobacterium tuberculosis, H37RV; read-out: MIC90.
`COc1ccc(-c2cc(NC(=O)c3ccc(F)cc3Cl)ccc2OC)cc1` [DG70, 2-chloro-N-(4',6-dimethoxy-[1,1'-biphenyl]-3-yl)-4-fluorobenzamide]: the MIC90 was 4.8 µg/mL (≈ 12.4 µM).

For a further experiment, the system named is DG70-resistant mutants of H37Rv.
Test: not given
Format: cell-based, Mycobacterium tuberculosis.
Settings: not given
As to `COc1ccc(-c2cc(NC(=O)c3ccc(F)cc3Cl)ccc2OC)cc1` [DG70, 2-chloro-N-(4',6-dimethoxy-[1,1'-biphenyl]-3-yl)-4-fluorobenzamide], the “DG70 MIC90” value is >80 µg/mL and 40 µg/mL; the “MIC in Mtb P3 V20A” value is more than 80 µg/mL; the “MIC in Mtb P7 F118L” value is 40 µg/mL (≈ 104 µM).

As to `COc1ccc(-c2cccc(NC(=O)c3ccc(F)cc3Cl)c2)cc1` [JSF-2907], the “MIC in Mtb P3 V20A” value was more than 80 µg/mL and the “MIC in Mtb P7 F118L” value is more than 80 µg/mL.

On to `COc1ccc(-c2cc(NC(=O)c3ccccc3Cl)ccc2OC)cc1` [JSF-2908], for which the “MIC in Mtb P3 V20A” value is more than 40 µg/mL and the “MIC in Mtb P7 F118L” value is more than 40 µg/mL.

For the molecule `COc1ccc(-c2cc(NC(=O)c3ccc(F)cc3)ccc2OC)cc1` [JSF-2909], the “MIC in Mtb P3 V20A” value is more than 80 µg/mL and the “MIC in Mtb P7 F118L” value is more than 80 µg/mL.

For the molecule `O=C(Nc1cccc(-c2ccccc2)c1)c1ccc(F)cc1Cl` [JSF-2910], the “MIC in Mtb P3 V20A” value was more than 40 µg/mL and the “MIC in Mtb P7 F118L” value is more than 40 µg/mL.

`COc1ccc(-c2cc(NC(=O)c3ccccc3)ccc2OC)cc1` [JSF-2912]: the “MIC in Mtb P3 V20A” value is more than 40 µg/mL and the “MIC in Mtb P7 F118L” value is more than 40 µg/mL.

Regarding `COc1ccc(NC(=O)c2ccc(F)cc2Cl)cc1` [JSF-2926], the “MIC in Mtb P3 V20A” value worked out at 40 µg/mL (≈ 143 µM) and the “MIC in Mtb P7 F118L” value is 40 µg/mL (≈ 143 µM).

Take `COc1ccc(-c2cc(N(C)C(=O)c3ccc(F)cc3Cl)ccc2OC)cc1` [JSF-2949]: the “MIC in Mtb P3 V20A” value is more than 40 µg/mL and the “MIC in Mtb P7 F118L” value was more than 40 µg/mL.

In the case of `O=C(Nc1ccc(O)c(-c2ccc(O)cc2)c1)c1ccc(F)cc1Cl` [JSF-2950], the “MIC in Mtb P3 V20A” value is more than 40 µg/mL and the “MIC in Mtb P7 F118L” value is more than 40 µg/mL.

As for `COc1ccc(-c2cc(NCc3ccc(F)cc3Cl)ccc2OC)cc1` [JSF-2951], the “MIC in Mtb P3 V20A” value was more than 80 µg/mL and the “MIC in Mtb P7 F118L” value is more than 80 µg/mL.

As for `COc1ccc(NC(=O)c2ccc(F)cc2Cl)cc1-c1ccccc1` [JSF-2971], the “MIC in Mtb P3 V20A” value came to 40 µg/mL (≈ 112 µM) and the “MIC in Mtb P7 F118L” value stood at 40 µg/mL (≈ 112 µM).

The record behind these values is paper PMC5312080 (mBio, 2017).
